Results from patent US4045567A, “2-Alkyl-5-thiazole-carboxylic acid derivatives in hypolipemiant compositions” (Roussel Uclaf, priority 1969, dated 1977).
Where two headings read alike, the source gives them in different places.

Legend:
[1] = Solubility (qualitative); type: physicochemical; details: for solubility in other solvents: organic solvents, sodium hydroxide
[2] = test system: reddening of the ear; assay: Peripheral vasodilatory effect (reddening of the ear) in guinea pigs; type: in vivo, guinea pigs with non-pigmented ears; parameters: key to Intensity (of reddening): intensity, which is recorded subjectively from 0 to +++; intensity, which is recorded subjectively from 0 to +++; intensity, which is recorded subjectively from 0 to +++; intensity, which is recorded subjectively from 0 to +++; details: for Duration (of reddening) / Intensity (of reddening) / Period of Induction: oral
Method: Peripheral vasodilatory effect: The peripheral vasodilatory effect has been investigated on the guinea pigs with non-pigmented ears by the appearance of the reddening of the ear. The animals, after being starved, are administered the products by oral route, at different dosages. The time of appearance of a reddening of the ears, the duration of this reddening and its intensity, which is recorded subjectively from 0 to +++ is determined. B. peripheral vasodilatory effect: The peripheral vasodilatory effect was investigated on guinea pigs with non-pigmented ears by the appearance of the reddening of the ear. The animals were starved and the product was administered intraperitoneally at a dose of 100 mg/kg. The time of appearance of a reddening of the ears, the duration of this reddening and its intensity being recorded subjectively from 0 to +++ is determined.

[3] = in vivo; details: mouse, mice, observed one week
Method: 1. determination of the acute toxicity:
The acute toxicity has been determined on batches of ten mice weighing from 18 to 22 gm. The products were administered in suspension in gum arabic solution in water, at increasing doses, either by oral route or by intraperitoneal route.
The animals are kept under observation for one week. The average lethal dose (LD50) is determined graphically by the method of Dragstedt and Lang.
The acute toxicity was determined on batches of ten mice weighing from 18 to 22 gm. Ethyl 2-n-propyl-thiazole-4-carboxylate was administered in suspension in gum arabic solution in water, at increasing doses by the intraperitoneal route. The animals were kept under observation for one week. The average lethal dose (LD50) was determined graphically by the method of Dragstedt and Lang.

[4] = test system: triglycerides; assay: Hypolipemiant activity (serum triglycerides) in the rat, technique of Jacobs et al; type: in vivo, male rats of the Wistar strain; details: 4 hours after ingestion; for Percentage of Reduction by Comparison With Controls (triglycerides): oral (oesophagial probe), 20 mg/kg
Method: 2. Determination of hypolipemiant activity:
The hypolipemiant activity has been determined on the rat according to the technique of Jacobs et al, Proc. Soc. Exp. Biol. Med., [1965], 119 (4) pp. 1117-1120.
Male rats of the Wistar strain weighing from 160 to 180 gm are not fed for 24 hours. The products employed in a 5% suspension in gum arabic solution in water, are administered through an oesophagial probe at doses of 20, 40 and 80 mg/kg. Four hours after ingestion of the product, some blood is withdrawn on which a determination of the triglycerides is carried out.
The principle of the determination is as follows:
The serum lipids are extracted with petroleum ether in the presence of ethanol. The lipidic solution is treated several times with 87% ethanol. A solution is thus obtained, the upper part of which contains the glycerides and the lower part, the phospholipids.
The weight of the glycerides is determined by determination of glycerol by periodic acid oxidation and determination of the formaldehyde with chromotropic acid.
A. determination of hypolipemiant activity:
The hypolipemiant activity was determined on the rat using the technique of Jacobs et al (Proc. Soc. Exp. Biol. Med., [1965], 119 [4], pp. 1117-1120). Male rats of the Wistar strain weighing from 160 to 180 gm were not fed for 24 hours. The product employed in a 5% suspension in gum arabic solution in water, was administered orally through an oesophagial probe at doses of 20 and 80 mg/kg. Four hours after ingestion of the product, some blood was withdrawn and a determination of the triglycerides therein was made.
The serum lipids are extracted with petroleum ether in the presence of ethanol and the lipidic solution was treated several times with 87% ethanol to obtain a solution, the upper part of which contained the glycerides and the lower part the phospholipids. The weight of the glycerides by determination of glycerol by periodic acid oxidation and determination of the formaldehyde with chromotropic acid is estimated.

[5] = Hypothermic activity in guinea pigs; type: in vivo; details: intraperitoneal, 100 mg/kg, 1, 2 and 3 hours after administration
Method: The hypothermic activity was determined on guinea pigs by administering the test compound, ethyl 2-n-propyl-thiazole-4-carboxylate, intraperitoneally at a dose of 100 mg/kg. The body temperature of the guinea pigs was determined 1/2 hour before the administration of the test compound and then 1, 2 and 3 hours after the said administration.

[6] = ip, intraperitoneal, read-out: average lethal dose (LD50), Intraperitoneal Route
[7] = oral, read-out: average lethal dose (LD50), Oral Route

## CCCc1ncc(C(=O)OCC2COC(C)(C)O2)s1 (stereo not drawn) [2,3-Isopropylidenedioxy-propyl 2-propyl-5-thiazolecarboxylate]
[1]
  solubility in other solvents: soluble in ether, benzene and ethanol
  solubility in water: insoluble in water

## CCc1ncc(C(=O)O)s1 [2-ethyl-5-thiazolecarboxylic acid, 2-Ethyl-5-thiazolecarboxylic acid]
[1]
  solubility in other solvents: soluble in ethanol and sodium hydroxide
  solubility in water: insoluble in water
[2]; 50 mg/kg
  Duration (of reddening): 50 min
  Intensity (of reddening): +++
  Period of Induction: 6 to 8 min
[2]; 100 mg/kg
  Duration (of reddening): 60 min
  Intensity (of reddening): +++
  Period of Induction: 6 to 7 min
[3]; [6]
  LD50 at 168 h: 525 mg/kg
[3]; [7]
  LD50 at 168 h: > 2000 mg/kg
[4]
  Percentage of Reduction by Comparison With Controls (triglycerides): 50%

## Cc1ncc(C(=O)O)s1 [2-methyl-5-thiazolecarboxylic acid]
[2]; 10 mg/kg
  Duration (of reddening): 30 min
  Intensity (of reddening): +++
  Period of Induction: 5 min
[2]; 20 mg/kg
  Duration (of reddening): 32 min
  Intensity (of reddening): +++
  Period of Induction: 3 min
[2]; 50 mg/kg
  Duration (of reddening): 35 min
  Intensity (of reddening): +++
  Period of Induction: 3 min
[4]
  Percentage of Reduction by Comparison With Controls (triglycerides): 40%

## CCCCc1ncc(C(=O)O)s1 [2-n-butyl-5-thiazolecarboxylic acid]
[1]
  solubility in other solvents: soluble in alcohol, chloroform and benzene
  solubility in water: insoluble in water

## CCCCCCc1ncc(C(=O)O)s1 [2-n-hexyl-5-thiazolecarboxylic acid]
[1]
  solubility in other solvents: soluble in sodium hydroxide and alcohol
  solubility in water: insoluble in water

## CCCCCc1ncc(C(=O)O)s1 [2-n-pentyl-5-thiazolecarboxylic acid]
[1]
  solubility in other solvents: soluble in sodium hydroxide and alcohol, slightly soluble in ether
  solubility in water: insoluble in water

## CCCCCCCCCCCc1ncc(C(=O)O)s1 [2-n-undecyl-5-thiazolecarboxylic acid]
[1]
  solubility in other solvents: soluble in alcohol and acetone
  solubility in water: insoluble in water

## CCCc1ncc(C(=O)O)s1 [2-propyl-5-thiazolecarboxylic acid]
[1]
  solubility in other solvents: soluble in sodium hydroxide and alcohol, slightly soluble in ether
  solubility in water: insoluble in water
[2]; 50 mg/kg
  Duration (of reddening): 30 min
  Intensity (of reddening): +
  Period of Induction: 13 min
[2]; 100 mg/kg
  Duration (of reddening): 32 min
  Intensity (of reddening): ++
  Period of Induction: 10 min
[3]; [6]
  LD50 at 168 h: 1680 mg/kg
[3]; [7]
  LD50 at 168 h: > 2000 mg/kg
[4]
  Percentage of Reduction by Comparison With Controls (triglycerides): > 50%

## CCCc1ncc(C(=O)OCCc2ccccc2)s1 [Phenylethyl 2-propyl-5-thiazolecarboxylate]
[1]
  solubility in other solvents: soluble in ether and acetone
  solubility in water: insoluble in water

## CCCc1ncc(C(=O)OCc2ccccc2)s1 [benzyl 2-propyl-5-thiazolecarboxylate, Benzyl 2-propyl-5-thiazolecarboxylate]
[1]
  solubility in other solvents: soluble in ether and ethanol
  solubility in water: insoluble in water

## CCCc1ncc(C(=O)OCCN(CC)CC)s1 [chlorohydrate of N,N-diethylaminoethyl 2-propyl-5-thiazolecarboxylate]
[1]
  solubility in other solvents: soluble in water, ethanol, propylene glycol, acetone, and chloroform, slightly soluble in ethyl acetate and benzene, and insoluble in ether
  solubility in water: soluble in water

## CCCc1ncc(C(=O)O)s1 [diisopropylammonium 2-propyl-5-thiazolecarboxylate]
[1]
  solubility in other solvents: soluble in water and in alcohol
  solubility in water: soluble in water

## CCCc1nc(C(=O)OCC)cs1 [ethyl 2-n-propyl-thiazole-4-carboxylate, reference compound]
[2]; intraperitoneal, 100 mg/kg, comparison test
  peripheral vasodilatory effect: no vasodilatory activity
[5]
  hypothermic activity: no hypothermic activity
[3]; [6]
  LD50 at 168 h: 1000 to 1500 mg/kg
[4]; oral, 20 and 80 mg/kg, comparison test
  hypolipemiant activity (action on the triglycerides): no action on the triglycerides
